Test [1] concerns cyclic AMP dependent protein kinase catalytic subunit. The conditions noted are these: cited from earlier work.
Test [2] concerns intracellular cAMP, HEK-293 cells. Nature of the test: Forskolin titration in HEK-293 cells transfected with CPM-hRL/RIIβB biosensor (201325.78.E5). Type of test: cell-based. On the procedure: 100 μl HEK-293 cells were plated in a 96 well plate and grown to 70-90% confluency in DMEM/F12 with HEPES buffer (Invitrogen) with 10% FBS at 37° C. with 5% CO2.
Cells were transfected with TransIt®-LT1 Reagent (MIRUS) using 0.3 μl TransIt®-LT1 reagent and 0.15 μg DNA (CPM-hRL/RIIβB cAMP biosensor with X/Y peptide linker lengths of (X=4, Y=20) (201325.78.E5)) per well of a 96-well plate. Cells were allowed to grow overnight and were assayed the next day.
Approximately 1 day after transfection, cells were removed from incubator and equilibrated to room temperature. A 10 μl aliquot of 600 μM EnduRen Live Cell Substrate (Promega) was added to a total of 100 μl of cell culture to give a final concentration of approximately 60 μM coelentrazine. Cells were then incubated at room temperature for at least 15 minutes. After 15 minutes at room temperature, baseline measurements of luminescence were measured using a 96-well Veritas Luminometer (Turner) at 0.5 seconds per well. Cells were then induced with 0.025 μM-250 μM forskolin (Sigma) or not induced (0.1% DMSO (Sigma)) and luminescence was measured continuously for about 30 minutes (FIG. 19). Samples were measured in sets of 5 replicates per concentration of forskolin. EC50s were calculated using GraphPad Prism for Windows, Version 4.

For test [3], the system named is intracellular cAMP concentration, HEK 293 cells. Nature of the test: Intracellular cAMP changes in HEK 293 cells transiently transfected with CPM-FF Luc/RIIβB (pBFB141). It is filed as cell-based. The conditions noted are these: HEK 293 cells, pBFB141; 10 μM isopreterenol or 50 mM forskolin (so in the source), treatment alone, room temperature. As to the method:
Cells were cultured in 60 ml in DMEM/F12 with HEPES buffer (Invitrogen) with 10% FBS at 37° C. with 5% CO2.
The ORF encoding the CPM-FF Luc/RIIβB based cAMP biosensor with X/Y linker lengths of (X=10, Y=0) was transferred to Flexi vector pF4K (Flexi vector system; Promega Corp.). The resultant plasmid construct (pBFB141) utilizes an upstream CMV promoter for expression of the associated cAMP biosensor in mammalian cells.
Cells were transfected with TransIt®-LT1 Reagent (MIRUS) using 0.3 μl TransIt®-LT1 reagent and 0.15 μg DNA per well of a 96 well plate. Cells were allowed to grow overnight and were assayed the next day.
Approximately 1 day after transfection, cells were removed from the incubator and equilibrated to room temperature. A 5 μl aliquot of 100 mM Luciferin EF was added to a total of 90 μl of cell culture plus transfection reagent to give a final concentration of approximately 5 mM luciferin. Cells were then incubated at room temperature for at least 90 minutes. After 90 minutes at room temperature, baseline measurements of luminescence were measured using a 96 well Veritas Luminometer (Turner Biosystems; integration time of 0.5 seconds per well). Cells were then induced with 10 μM isopreterenol (CalBiochem), 50 mM forskolin (Sigma) or not induced (0.1% DMSO, Sigma) and luminescence was measured continuously for about 30 minutes. After 30 minutes, […] (Sigma) was added to cells with isopreterenol and 0.1% DMSO was added to all other samples. Luminescence was then measured continuously for the next 30 minutes. A final addition of 50 μM forskolin was added to the isopreterenol/propranolol sample and 0.1% DMSO was added to all other samples. Luminescence was then measured continuously for the next half hour. Samples were measured in sets of 12 replicates. 10× stocks of isopreterenol, propranolol, forskolin and DMSO were made in 1×PBS (Invitrogen).

Test [4] shares this test system. The test can be described thus: Intracellular cAMP changes in HEK293 cells with CPM-hRL Luc/RIIβB biosensors (isopreterenol, propranolol, forskolin). It is filed as cell-based. As to the method: Cells were cultured in 2 mL DMEM/F12 with HEPES buffer (Invitrogen) and 10% FBS at 37° C. with 5% CO2 in a 6 well plate. Three of the constructs described in Example XVII were used to detect intracellular changes of cAMP concentrations. The constructs used were: pBFB277, pBFB279 and pBFB287. HEK293 cells stably expressing CPM91-hRL/RIIβB (ORF derived from 201325.44.H6 were also used in these experiments. HEK293 cells were transfected with TransIt®-LT1 Reagent (MIRUS) using 6 μL TransIt®-LT1 reagent and 2 μg DNA (pBFB277, pBFB279 and pBFB287) per well of a 6 well plate. Cells were allowed to grow overnight and were assayed the next day. Approximately 1 day after transfection, cells were trypsinized, resuspended in fresh DMEM/F12 with HEPES buffer (Invitrogen) with 1% FBS and plated in a 96 well plate at approximately 10,000 cells per well. Alternatively, a HEK293 cell line stably expressing CP91-hRL/RIIβB was plated in a 96 well plate at approximately 10,000 cells per well. A 10 μL aliquot of 600 μM EnduRen was added to a total of 100 μL of cell culture to give a final concentration of approximately […]. Cells were then incubated at 37° C. with 5% CO2. After 5 hours, the plate was removed from the incubator and allowed to cool to room temperature for at least 20 minutes. After 20 minutes, baseline measurements of luminescence were measured using a 96 well Veritas Luminometer (Turner Biosystems; integration time of 0.5 seconds per well). Cells were then induced with 10 μM isopreterenol (CalBiochem), 50 μM forskolin (Sigma) or not induced (0.1% DMSO, Sigma) and luminescence was measured continuously for about 30 minutes. After 30 minutes, 10 μM propranolol (Sigma) was added to cells already induced with isopreterenol and 0.1% DMSO was added to all other samples. Luminescence was then measured continuously for the next 30 minutes. A final addition of 50 μM forskolin was added to the isopreterenol/propranolol sample and 0.1% DMSO was added to all other samples. Luminescence was then measured continuously for the next half hour. Samples were measured in sets of 4-6 replicates. 10× stocks of isopreterenol, propranolol, forskolin and DMSO were made in DMEM/F12 with HEPES buffer (Invitrogen) and 1% FBS.

Test [5] concerns intracellular cAMP, HEK293 cells. Nature of the test: HEK293 cells stably expressing CP234-Luc/RIIB, forskolin stimulation and Z′ measurement. It is filed as cell-based. On the procedure:
The ORF from pBFB135, under the class of biosensors called “CPM-FF Luc/RIIβB,” was used to generate the transient and stable cells lines described below. These cell lines are called “CP234-Luc/RIIB,” “cAMP LucSensor,” “LucSensor,” and “FF cAMP Sensor.”
HEK293 cells stably expressing CP234-Luc/RIIB (ORF derived from pBFB135) were resuspended in complete media and mixed with 5 mM luciferin-EF. Cells were plated at 1×10^5 cells per well in a 96 well plate and equilibrated to room temperature for 1.5 hours. After stimulation with forskolin, luminescence was measured at 15 minutes using a GloMax™ Luminometer.
For a Z′ measurement, 2×10^4 cells were aliquoted per well to a 384-well plate and equilibrated using a similar protocol. Half the plate was induced with […], whereas the other half remained uninduced. Luminescence was captured 15 minutes after induction using a TECAN GENios Pro™ luminometer. The fold of induction was 6.1 and Z′ was 0.83. Since assays with Z′ greater than 0.5 are considered good quality for high-throughput screening (HTS), the cAMP biosensor-based assay is amenable for HTS.

Test [6] can be described thus: CPM-FF Luc calcium biosensors, 10 mM CaCl2 or 10 mM EDTA plus 2.5 mM EGTA. It is filed as biochemical. The conditions noted are these: 10 mM CaCl2 vs 10 mM EDTA plus 2.5 mM EGTA. As to the method: Calcium biosensors were prepared by fusing sequences encoding a circularly permuted firefly luciferase having engineered N- and C-termini at residues 234 and 233, respectively, to sequences encoding protein domains that bind calcium. One type of calcium biosensor utilized a mutant of fast chicken skeletal muscle troponin C (TnC) (amino acids 15-163; N109D, D111N, N145D, D147N; Genbank NM_205450) [Met-(Luc2.0 234-544)-(Linker X)-(TnC)-(Linker Y)-(Luc2.0 4-233)-Val], and the second type of calcium biosensor utilized human calmodulin (CaM) (amino acids 5-148; Genbank BC005137) [Met-Luc+ (234-544)-(Linker X)-human Calmodulin (5-148)-(Linker Y)-Luc+ (4-233)].
CPM-FF Luc/TnC and CPM-FF Luc/CaM constructs with varying X/Y peptide linker lengths were expressed in vitro using the T7 Coupled Reticulocyte Lysate System (pBFB225, pBFB226, pBFB227, pBFB7; FIG. 24). Reactions were then supplemented with 10 mM CaCl2 or 10 mM EDTA plus 2.5 mM EGTA.

In test [7] the target is T1, Akt1/PKB alpha recombinant enzyme (Homo sapiens, UniProt P31749).
T1 construct: purchased Upstate Biotechnology
T1 sequence (P31749 whole entry): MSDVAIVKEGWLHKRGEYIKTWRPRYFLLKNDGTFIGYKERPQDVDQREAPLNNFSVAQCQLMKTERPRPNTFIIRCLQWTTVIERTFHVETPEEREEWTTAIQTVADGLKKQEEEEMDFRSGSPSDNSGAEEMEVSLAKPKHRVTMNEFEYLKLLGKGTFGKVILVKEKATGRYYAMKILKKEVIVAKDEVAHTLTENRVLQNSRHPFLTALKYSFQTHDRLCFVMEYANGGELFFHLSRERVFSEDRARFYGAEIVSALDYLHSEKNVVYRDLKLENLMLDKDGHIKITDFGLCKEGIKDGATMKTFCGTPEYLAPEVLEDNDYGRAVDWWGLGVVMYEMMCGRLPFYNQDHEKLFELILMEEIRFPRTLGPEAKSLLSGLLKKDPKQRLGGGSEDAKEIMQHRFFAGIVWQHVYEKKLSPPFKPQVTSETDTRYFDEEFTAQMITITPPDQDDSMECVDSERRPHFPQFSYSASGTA
The test can be described thus: In vitro serine/threonine kinase sensor assay with Akt1/PKB. Type of test: biochemical. Particulars: 10 ng Akt1/PKB alpha, 30° C., 20 minutes. As to the method: Constructs pBFB335, 336, 338, 339, 340, 417, 418, 419, 422, 22 and 8 were tested in vitro using TNT® T7 Coupled Reticulocyte Lysate System (Promega Corp.). […] Luminescence was measured using a Turner 20/20N luminometer (Turner Biosystems; 1 second integration time). All samples were measured in triplicate. […]
The protocol for other Serine/Threonine kinase sensors is identical to the one above except that for the CPM hRL Luc samples, 5 μL of sample are added to a 96 well plate+5 μL 2× Renilla lysis buffer without detergents (150 mM HEPES, 100 mM Thiourea) and 100 μL Renilla Assay Reagent (Promega Corp.) is added by injectors using a Veritas Microplate Luminometer and luminescence is measured (Turner Biosystems; Bright-Glo program; 3 second integration time). FF Luc samples are measured by adding 100 μL of Luciferase Assay Reagent (LAR; Promega Corp.), to 5 μL of sample in a 96 well plate, by injectors using a Veritas Microplate Luminometer and luminescence measured (Turner Biosystems; Bright-Glo program; 3 second integration time).

For the compound “RRFS: Photinus pyralis luciferase V217R mutant with site RRFS (SEQ ID NO:117), Sala-Newby et al.”, the “decrease in activity on phosphorylation by cyclic AMP dependent protein kinase” value in test [1] is reported as “up to 80%”.

For LRRASLG, the “decrease in activity on phosphorylation by cyclic AMP dependent protein kinase” value in test [1] is given as 30%.

On to `C=C[C@@]1(C)CC(=O)[C@]2(O)[C@@]3(C)[C@@H](O)CCC(C)(C)[C@@H]3[C@H](O)[C@H](OC(C)=O)[C@@]2(C)O1` [forskolin], for which the “light output above that of untreated cells at maximal levels” value in test [2] (CPM-hRL/RIIβB X=4, Y=20 (201325.78.E5)) is recorded as 3.6 fold. Besides, the concentration giving a half-maximal response (EC50) (in general, the midpoint of the concentration-response curve) is 59 nM in test [2] (Homo sapiens, HEK293, CPM-hRL/RIIβB X=4, Y=20 (201325.78.E5), read-out: EC50 of the forskolin response) and 360 nM in test [5] (Homo sapiens, 0.25 h, HEK293 stably expressing CP234-Luc/RIIB, 96 well, luminescence at 15 minutes). Moreover, the “increase in light output from transfected cells” value is on record as “approximately 2 fold” in test [3] and “approximately 2 fold” in test [4] (HEK 293 transiently transfected with CPM-hRL Luc/RIIβB (X=4, Y=20) constructs, 10 μM isopreterenol or 50 μM forskolin alone). The “increase in light output” value in test [4] (HEK293 cells stably expressing CPM91-hRL/RIIβB, isopreterenol and forskolin treatment) is given as “about 5 fold”. In test [5] (384-well plate, induced with 20 forskolin (so in the source), 15 minutes), the fold of induction is 6.1 fold.

Consider “pBFB22: wild-type firefly luciferase control”, for which the “fold reduction in luminescence activity in the presence of calcium” value in test [6] is “No response”. Further, in test [7], the “decrease in luminescence plus Akt1/PKB as compared to no Akt1/PKB” value is listed as “did not change”.

Source of the values: US10077433B2, “Permuted and nonpermuted luciferase biosensors” (PROMEGA CORPORATION, priority 2006, dated 2018).
